Holding throughout (test): HPLC-MS kinetic assay
Format in all cases: biochemical, Aralia elata
Common to all, as to conditions: 0.5 mM UDP-Glc, 50 mM Tris-HCl pH 7.0, 30 °C, 1 µM enzyme

For one test, the system named is T1, AeUGT73AD2.
T1 construct: pGEX-4T-1, GST-tagged, E. coli BL21 (DE3), GSTrap purified

The subject of the next test is T2, AeUGT74AG6.
T2 construct: pGEX-4T-1, GST-tagged, E. coli BL21 (DE3), GSTrap purified

Another test concerns T3, AeUGT73CB3.
T3 construct: pGEX-4T-1, GST-tagged, E. coli BL21 (DE3), GSTrap purified; methods print AeUGT74CB3
On the procedure: HPLC-MS kinetic assay on AeUGT73CB3 | The kinetic parameters of AeUGT73CB3 for calenduloside E and chikusetsusaponin IVa as substrates were analyzed.

From PMC9038795, “Deletion and tandem duplications of biosynthetic genes drive the diversity of triterpenoids in Aralia elata” (Nature Communications, 2022) come the findings set out here.

As a reminder, the Km is the concentration of substrate that gives half-maximal velocity.

In the case of `CC1(C)CC[C@]2(C(=O)O)CC[C@]3(C)C(=CC[C@@H]4[C@@]5(C)CC[C@H](O)C(C)(C)[C@@H]5CC[C@]43C)[C@@H]2C1` [compound 2, oleanolic acid], the Km in the test with AeUGT73AD2 is 43 ± 9.17 µM; with AeUGT74AG6, 40.3 ± 2.49 µM.

For `CC1(C)CC[C@]2(C(=O)O)CC[C@]3(C)C(=CC[C@@H]4[C@@]5(C)CC[C@H](O[C@@H]6O[C@H](C(=O)O)[C@@H](O)[C@H](O)[C@H]6O)C(C)(C)[C@@H]5CC[C@]43C)[C@@H]2C1` [compound 7, calenduloside E], the results for the Km in the test with AeUGT73CB3 and in the test with AeUGT74AG6 were 51.8 ± 2.1 µM and 150 ± 7.7 µM, respectively. Take `CC1(C)CC[C@]2(C(=O)O)CC[C@]3(C)C(=CC[C@@H]4[C@@]5(C)CC[C@H](O[C@@H]6O[C@H](C(=O)O)[C@@H](O)[C@H](O)[C@H]6O[C@@H]6O[C@H](CO)[C@@H](O)[C@H](O)[C@H]6O)C(C)(C)[C@@H]5CC[C@]43C)[C@@H]2C1` [compound 8, zingibroside R1]: the Km with AeUGT74AG6 worked out at 48.8 ± 3.04 µM.

Turning to `CC1(C)CC[C@]2(C(=O)O[C@@H]3O[C@H](CO)[C@@H](O)[C@H](O)[C@H]3O)CC[C@]3(C)C(=CC[C@@H]4[C@@]5(C)CC[C@H](O[C@@H]6O[C@H](C(=O)O)[C@@H](O)[C@H](O)[C@H]6O)C(C)(C)[C@@H]5CC[C@]43C)[C@@H]2C1` [compound 9, chikusetsusaponin IVa], the Michaelis constant (Km) in the test on AeUGT73CB3 was 640.2 ± 4.6 µM.
